The supplement of paper PMC10307832

What was measured:
Assay in all cases: relative viability (nuclei count vs DMSO), 5 days (fraction); higher = more cells survive
EHT 1864 + Tozasertib = compound: C1COCCN1CC2=CC(=O)C(=CO2)OCCCCCSC3=C4C=CC(=CC4=NC=C3)C(F)(F)F [EHT 1864] + Cc1cc(Nc2cc(N3CCN(C)CC3)nc(Sc3ccc(NC(=O)C4CC4)cc3)n2)n[nH]1 [Tozasertib] (partner 0.1 µM)
Summary of the method: (§1)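 Values are medians from duplicate plates. Each reflects relative viability, defined as the nuclei count of treated wells over that of vehicle wells. Lung cancer cell lines in 1536-well plates were pin-tool dosed one day after seeding with one drug alone or with a fixed anchor-drug dose plus five library-drug doses (not always all listed) in √10 steps, then fixed, stained and imaged at 4× after 5 days.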

EHT 1864 + Crizotinib = compound: C1COCCN1CC2=CC(=O)C(=CO2)OCCCCCSC3=C4C=CC(=CC4=NC=C3)C(F)(F)F [EHT 1864] + C[C@@H](Oc1cc(-c2cnn(C3CCNCC3)c2)cnc1N)c1c(Cl)ccc(F)c1Cl [Crizotinib] (partner 1 µM)
Summary of the method: as §1

EHT 1864 + Vorinostat = compound: C1COCCN1CC2=CC(=O)C(=CO2)OCCCCCSC3=C4C=CC(=CC4=NC=C3)C(F)(F)F [EHT 1864] + O=C(CCCCCCC(=O)Nc1ccccc1)NO [Vorinostat] (partner 1 µM)
Summary of the method: as §1

EHT 1864 + Navitoclax = compound: C1COCCN1CC2=CC(=O)C(=CO2)OCCCCCSC3=C4C=CC(=CC4=NC=C3)C(F)(F)F [EHT 1864] + CC1(C)CCC(c2ccc(Cl)cc2)=C(CN2CCN(c3ccc(C(=O)NS(=O)(=O)c4ccc(N[C@H](CCN5CCOCC5)CSc5ccccc5)c(S(=O)(=O)C(F)(F)F)c4)cc3)CC2)C1 [Navitoclax] (partner 0.5 µM)
Summary of the method: as §1

Row | Cell Line | relative viability (EHT 1864 + Tozasertib; first compound 0.04 µM) | relative viability (EHT 1864 + Tozasertib; first compound 0.1265 µM) | relative viability (EHT 1864 + Tozasertib; first compound 0.4 µM) | relative viability (EHT 1864 + Tozasertib; first compound 1.265 µM) | relative viability (EHT 1864 + Tozasertib; first compound 4 µM) | relative viability (EHT 1864 + Crizotinib; first compound 0.04 µM) | relative viability (EHT 1864 + Crizotinib; first compound 0.1265 µM) | relative viability (EHT 1864 + Crizotinib; first compound 0.4 µM) | relative viability (EHT 1864 + Crizotinib; first compound 1.265 µM) | relative viability (EHT 1864 + Crizotinib; first compound 4 µM) | relative viability (EHT 1864 + Vorinostat; first compound 0.04 µM) | relative viability (EHT 1864 + Vorinostat; first compound 0.1265 µM) | relative viability (EHT 1864 + Vorinostat; first compound 0.4 µM) | relative viability (EHT 1864 + Vorinostat; first compound 1.265 µM) | relative viability (EHT 1864 + Vorinostat; first compound 4 µM) | relative viability (EHT 1864 + Navitoclax; first compound 0.04 µM) | relative viability (EHT 1864 + Navitoclax; first compound 0.1265 µM) | relative viability (EHT 1864 + Navitoclax; first compound 0.4 µM) | relative viability (EHT 1864 + Navitoclax; first compound 1.265 µM) | relative viability (EHT 1864 + Navitoclax; first compound 4 µM)
1 | COR-L 105 | 0.343 | 0.36 | 0.367 | 0.369 | 0.693 | 0.614 | 0.732 | 1.05 | 0.774 | 0.74 | 0.99 | 0.699 | 0.949 | 0.847 | 0.778 | 0.883 | 0.783 | 0.801 | 0.707 | 0.723
2 | LK-2 | 0.162 | – | 0.169 | 0.198 | 0.164 | 0.232 | 0.23 | 0.225 | 0.241 | 0.221 | 0.312 | 0.265 | 0.206 | 0.253 | 0.284 | 0.839 | 0.674 | 0.847 | 0.94 | 0.784
3 | NCI-H727 | 0.574 | 0.573 | 0.611 | 0.503 | 0.592 | 0.803 | 0.713 | 0.699 | – | 0.786 | 1.47 | 1.31 | 1.07 | 1.26 | 1.29 | 0.554 | 0.507 | 0.348 | – | 0.324
4 | RERF-LC-KJ | 0.493 | 0.473 | 0.523 | 0.381 | 0.352 | 0.794 | 0.816 | 0.769 | 0.784 | 0.787 | 0.676 | 0.585 | 0.69 | 0.735 | 0.718 | 0.985 | 0.829 | 0.823 | 0.931 | 0.888
5 | NCI-H2023 | 0.281 | 0.294 | 0.29 | 0.248 | 0.207 | 0.675 | 0.714 | 0.632 | 0.666 | 0.617 | 0.692 | 0.381 | 0.591 | 0.699 | 0.784 | 0.964 | 0.978 | 0.874 | 0.939 | 0.841
6 | NCI-H322M | 0.477 | 0.457 | 0.448 | 0.461 | 0.51 | 0.927 | 0.837 | 0.849 | 0.995 | 1.05 | 0.856 | 0.921 | 0.863 | 0.807 | 0.789 | 1.13 | 1.26 | 1.13 | 1.29 | 1.23
7 | NCI-H1648 | 0.486 | 0.376 | 0.396 | 0.411 | 0.441 | – | – | – | – | – | 0.562 | – | 0.436 | 0.411 | 0.644 | – | – | – | – | –
8 | NCI-H522 | 0.583 | 0.471 | 0.561 | 0.503 | 0.541 | – | – | – | – | – | 0.76 | 0.738 | 0.901 | 0.893 | 1.03 | – | – | – | – | –
9 | NCI-H2342 | 0.541 | 0.394 | 0.452 | 0.491 | 0.533 | – | – | – | – | – | 0.688 | 0.725 | 0.703 | 0.803 | 0.787 | – | – | – | – | –
10 | ABC-1 | 0.15 | 0.164 | 0.185 | 0.189 | 0.195 | 1.35 | 1.03 | 0.991 | 0.733 | 0.759 | 1.22 | 0.978 | 0.928 | 1.07 | 1.12 | – | – | – | – | –
11 | NCI-H661 | 0.385 | 0.335 | 0.355 | 0.33 | 0.379 | 1.03 | 1.03 | 0.882 | 0.85 | 0.879 | 0.836 | 0.685 | 0.773 | 0.697 | 0.712 | – | – | – | – | –
12 | EBC-1 | – | – | – | – | – | 0.18 | 0.181 | 0.219 | 0.205 | 0.196 | – | – | – | – | – | 0.381 | 0.329 | 0.449 | 0.431 | 0.429
13 | NCI-H650 | 0.671 | 0.667 | 0.708 | 0.642 | 0.722 | 0.71 | – | 0.805 | 0.7 | 0.698 | 0.497 | 0.308 | 0.413 | 0.457 | 0.478 | – | – | – | – | –
14 | NCI-H1793 | 0.294 | – | 0.341 | – | 0.285 | – | – | – | – | – | 0.656 | 0.403 | 0.768 | 0.879 | 0.935 | – | 0.366 | 0.485 | 0.364 | 0.387
15 | NCI-H1792 | – | – | – | – | – | 0.982 | 0.852 | 0.972 | 0.895 | 1.04 | – | – | – | – | – | 0.68 | 0.54 | 0.648 | 0.616 | 0.718
16 | A549 | – | – | – | – | – | 0.659 | 0.739 | 0.742 | 0.669 | 0.601 | – | – | – | – | – | 1.16 | 1.2 | 0.952 | 1.18 | 0.912
17 | NCI-H1703 | – | – | – | – | – | 0.69 | 0.534 | 0.545 | 0.598 | 0.487 | – | – | – | – | – | 1.13 | 0.968 | 0.956 | 0.849 | 0.749
18 | LCLC-103H | 0.455 | 0.305 | 0.543 | 0.441 | 0.475 | 1.15 | 1.03 | 1.02 | 1.05 | 1.01 | 0.758 | 0.666 | 0.791 | 0.779 | 0.712 | – | – | – | – | –
19 | NCI-H1563 | – | – | – | – | – | 0.89 | 0.883 | 0.916 | 0.827 | 0.656 | – | – | – | – | – | – | – | – | – | –
20 | NCI-H1395 | 0.831 | 0.65 | 0.772 | 0.719 | 0.723 | – | – | – | – | – | 0.775 | 0.552 | 0.819 | 0.607 | 0.681 | 1.12 | 1.02 | 1.18 | 0.967 | 0.875
21 | NCI-H358 | 0.113 | 0.128 | 0.104 | 0.102 | 0.0985 | 0.604 | – | 0.616 | 0.517 | 0.579 | 0.645 | 0.652 | 0.612 | 0.68 | 0.559 | – | – | – | – | –
